Measured values taken from patent US9365588B2, “Benzoxazines as modulators of ion channels” (Vertex Pharmaceuticals Incorporated, priority 2011, dated 2016).

Biological target: human NaV 1.7 (Homo sapiens, UniProt Q15858)
Test: E-VIPR optical membrane potential assay with electrical stimulation
Assay type: cell-based
Settings: sodium channel inhibition; read-out: Binned Activity Data (IC50)
Procedure, shortened: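 Membrane-potential read-out: background-subtracted 460 nm/580 nm ratio during a 9 s current-controlled stimulus, 400 Hz scan. Before stimulation, NaV1.7-HEK cells carried coumarin/oxonol dye and compound (final DMSO 0.625%) for 20–35 min at room temperature; tetracaine 125 μM served as positive control.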

human NaV 1.7, sequence (Q15858 whole entry): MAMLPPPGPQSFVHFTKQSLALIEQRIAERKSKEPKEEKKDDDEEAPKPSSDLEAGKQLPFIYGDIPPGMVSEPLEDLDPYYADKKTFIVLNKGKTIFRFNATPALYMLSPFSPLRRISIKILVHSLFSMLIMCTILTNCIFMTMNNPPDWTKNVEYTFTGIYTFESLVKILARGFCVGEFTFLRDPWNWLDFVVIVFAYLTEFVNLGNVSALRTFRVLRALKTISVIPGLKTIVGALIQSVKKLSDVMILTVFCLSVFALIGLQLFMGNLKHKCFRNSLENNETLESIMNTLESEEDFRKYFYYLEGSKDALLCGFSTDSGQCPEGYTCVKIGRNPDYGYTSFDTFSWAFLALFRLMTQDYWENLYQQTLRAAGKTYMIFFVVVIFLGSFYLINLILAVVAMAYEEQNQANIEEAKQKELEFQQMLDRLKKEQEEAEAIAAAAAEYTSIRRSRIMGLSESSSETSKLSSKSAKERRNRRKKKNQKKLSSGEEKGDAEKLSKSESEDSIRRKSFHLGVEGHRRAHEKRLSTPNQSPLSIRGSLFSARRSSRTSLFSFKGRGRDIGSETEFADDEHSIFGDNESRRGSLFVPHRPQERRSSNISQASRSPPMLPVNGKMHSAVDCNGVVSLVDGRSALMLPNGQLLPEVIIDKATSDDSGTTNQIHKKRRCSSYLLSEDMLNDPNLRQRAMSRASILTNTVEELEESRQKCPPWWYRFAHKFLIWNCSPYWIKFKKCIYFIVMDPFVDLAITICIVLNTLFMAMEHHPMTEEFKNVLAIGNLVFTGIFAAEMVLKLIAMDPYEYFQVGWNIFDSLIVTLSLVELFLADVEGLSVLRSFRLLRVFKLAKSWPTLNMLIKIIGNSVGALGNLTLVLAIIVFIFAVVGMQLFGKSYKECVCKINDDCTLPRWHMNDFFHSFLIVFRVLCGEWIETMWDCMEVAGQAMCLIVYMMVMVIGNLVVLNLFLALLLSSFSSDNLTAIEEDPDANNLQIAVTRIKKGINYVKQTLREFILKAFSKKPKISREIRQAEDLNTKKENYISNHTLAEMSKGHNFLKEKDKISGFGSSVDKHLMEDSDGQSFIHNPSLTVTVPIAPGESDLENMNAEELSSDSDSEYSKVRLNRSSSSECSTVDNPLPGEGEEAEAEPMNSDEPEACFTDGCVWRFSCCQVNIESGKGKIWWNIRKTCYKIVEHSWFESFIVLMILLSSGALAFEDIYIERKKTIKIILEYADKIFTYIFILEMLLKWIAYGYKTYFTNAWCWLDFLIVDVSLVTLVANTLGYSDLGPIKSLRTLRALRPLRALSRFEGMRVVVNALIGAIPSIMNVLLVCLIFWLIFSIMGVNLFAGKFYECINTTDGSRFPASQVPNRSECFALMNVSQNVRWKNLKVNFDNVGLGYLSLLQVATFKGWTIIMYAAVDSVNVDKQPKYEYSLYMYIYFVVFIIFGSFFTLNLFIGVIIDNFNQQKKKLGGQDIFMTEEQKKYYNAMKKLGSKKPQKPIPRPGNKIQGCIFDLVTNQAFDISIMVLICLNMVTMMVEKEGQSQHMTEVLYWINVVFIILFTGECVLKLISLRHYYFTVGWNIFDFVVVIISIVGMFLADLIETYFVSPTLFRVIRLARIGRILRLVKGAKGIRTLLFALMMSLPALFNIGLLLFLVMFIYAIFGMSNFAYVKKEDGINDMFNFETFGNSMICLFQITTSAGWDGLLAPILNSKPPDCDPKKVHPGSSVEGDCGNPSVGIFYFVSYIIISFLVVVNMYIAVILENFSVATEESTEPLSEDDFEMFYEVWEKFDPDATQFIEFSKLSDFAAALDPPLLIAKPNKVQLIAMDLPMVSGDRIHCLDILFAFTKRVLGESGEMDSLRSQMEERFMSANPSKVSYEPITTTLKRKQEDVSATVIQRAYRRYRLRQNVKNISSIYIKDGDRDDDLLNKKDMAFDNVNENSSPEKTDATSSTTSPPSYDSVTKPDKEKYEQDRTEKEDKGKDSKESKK

| IC50 | SMILES |
| --- | --- |
| ≤ 2000 nM | Cc1cc(C(=O)N2CCC3(CC2)Oc2ccccc2-n2c3ccc2S(C)(=O)=O)ccc1OC(C)C [Compound 554] |
| 2000 to 5000 nM | O=C(c1ccc2[nH]ncc2c1)N1CCC2(CC1)Oc1ccccc1-n1c(C(F)(F)F)ccc12 [Compound 556] |
| ≤ 2000 nM | COc1cc(C(=O)N2CCC3(CC2)Oc2ccccc2-c2c3cnn2C)ccc1S(=O)(=O)C(C)(C)C [Compound 557] |
| ≤ 2000 nM | CNS(=O)(=O)c1ccc(C(=O)N2CCC3(CC2)Oc2ccccc2-n2c(C(F)(F)F)ccc23)cc1C [Compound 558] |
| ≤ 2000 nM | CC(C)Oc1ccc(C(=O)N2CCC3(CC2)Oc2ccccc2-n2c(C#N)ccc23)cc1CO [Compound 559] |
| ≤ 2000 nM | COc1cc(F)c(C(=O)N2CCC3(CC2)Oc2cc(Cl)ccc2-n2cccc23)cc1OC [Compound 561] |
| ≤ 2000 nM | Cc1cc(C(=O)N2CCC3(CC2)Oc2ccccc2-n2cccc23)ccc1C#N [Compound 562] |
| 2000 to 5000 nM | CCc1ccc(C(=O)N2CCC3(CC2)Oc2ccccc2-n2c(C(F)(F)F)ccc23)nc1 [Compound 564] |
| > 5000 nM | Cc1ccc(C(=O)N2CCC3(CC2)Oc2ccccc2-n2c(C(F)(F)F)ccc23)nc1 [Compound 566] |
| ≤ 2000 nM | COc1cc(C(=O)N2CCC3(CC2)Oc2cc(F)ccc2-n2cccc23)ccc1C(C)(C)OC [Compound 567] |
| ≤ 2000 nM | COc1ccc(C(=O)N2CCC3(CC2)Oc2ccccc2-c2c3ccn2C)cc1C(F)(F)F [Compound 568] |
| > 5000 nM | Cn1ncc2c1-c1ccccc1OC21CCN(C(=O)c2ccc(OC3COC3)c(F)c2)CC1 [Compound 569] |
| ≤ 2000 nM | COc1cc(C(=O)N2CCC3(CC2)Oc2ccccc2-n2cccc23)ccc1OC(C)(C)C#N [Compound 570] |
| ≤ 2000 nM | C[C@](O)(CO)c1ccc(C(=O)N2CCC3(CC2)Oc2ccccc2-n2c(C#N)ccc23)cc1 [Compound 571] |
| 2000 to 5000 nM | CC(C)(O)c1ccc(C(=O)N2CCC3(CC2)Oc2ccccc2-n2c(C(F)(F)F)ccc23)cc1CO [Compound 572] |
| ≤ 2000 nM | COc1cc(C(=O)N2CCC3(CC2)Oc2ccccc2-n2cccc23)ccc1C(C)(C)C [Compound 573] |
| ≤ 2000 nM | COc1cc(C(F)(F)F)ccc1C(=O)N1CCC2(CC1)Oc1ccccc1-c1c2cnn1C [Compound 574] |
| ≤ 2000 nM | COc1cc(OC)c(C(=O)N2CCC3(CC2)Oc2cc(Cl)ccc2-n2cccc23)cc1CO [Compound 576] |
| ≤ 2000 nM | COc1ccc(C(=O)N2CCC3(CC2)Oc2cc(Cl)ccc2-n2cccc23)c(OC)c1 [Compound 578] |
| ≤ 2000 nM | CC(C)S(=O)(=O)c1ccc(C(=O)N2CCC3(CC2)Oc2ccccc2-n2cccc23)cc1 [Compound 579] |
| ≤ 2000 nM | CC(C)NS(=O)(=O)c1ccc(C(=O)N2CCC3(CC2)Oc2ccc(F)cc2-c2nn(C)cc23)cc1 [Compound 580] |
| ≤ 2000 nM | CC(C)Oc1ccc(C(=O)N2CCC3(CC2)Oc2ccccc2-c2c3cnn2C)c(Cl)c1 [Compound 581] |
| ≤ 2000 nM | CCn1ncc2c1-c1ccccc1OC21CCN(C(=O)c2ccc(S(C)(=O)=O)c(C)c2)CC1 [Compound 582] |
| ≤ 2000 nM | Cc1cc(C(=O)N2CCC3(CC2)Oc2ccccc2-c2c3ncn2C)ccc1OC(C)C [Compound 583] |
| 2000 to 5000 nM | COc1cc(C(=O)N2CCC3(CC2)Oc2ccccc2-n2cccc23)ccc1OCC(=O)O [Compound 585] |
| > 5000 nM | COc1cc(C(=O)N2CCC3(CC2)Oc2ccccc2-c2c3cnn2C)ccc1S(=O)(=O)C(C)C [Compound 586] |
| ≤ 2000 nM | COCCOc1ccc(C(=O)N2CCC3(CC2)Oc2ccccc2-c2c3cnn2C)cc1Cl [Compound 587] |

| IC50 | SMILES |
| --- | --- |
| ≤ 2000 nM | COc1cc(C(=O)N2CCC3(CC2)Oc2cc(F)ccc2-n2cccc23)ccc1OC[C@@H](O)CO [Compound 588] |
| ≤ 2000 nM | COc1cc(C(=O)N2CCC3(CC2)Oc2ccccc2-c2nn(CC(F)(F)F)cc23)ccc1OCCC(C)C [Compound 589] |
| ≤ 2000 nM | CCNS(=O)(=O)c1ccc(C(=O)N2CCC3(CC2)Oc2ccccc2-n2c(C(F)(F)F)ccc23)cc1 [Compound 590] |
| ≤ 2000 nM | COc1cc(C(=O)N2CCC3(CC2)Oc2cc(F)ccc2-n2cccc23)ccc1O[C@H]1CCOC1 [Compound 592] |
| ≤ 2000 nM | Cn1ncc2c1-c1ccccc1OC21CCN(C(=O)c2ccccc2OCC(F)(F)F)CC1 [Compound 593] |
| ≤ 2000 nM | CC(C)n1ncc2c1-c1ccccc1OC21CCN(C(=O)c2ccc(S(=O)(=O)C(C)C)cc2)CC1 [Compound 594] |
| ≤ 2000 nM | Cn1cc2c(n1)-c1ccccc1OC21CCN(C(=O)c2ccc3[nH]ncc3c2)CC1 [Compound 595] |
| ≤ 2000 nM | COCCOc1ccc(C(=O)N2CCC3(CC2)Oc2ccccc2-n2c(C)ccc23)cc1OC [Compound 596] |
| ≤ 2000 nM | Cn1cc2c(n1)-c1ccccc1OC21CCN(C(=O)c2ccc(CC(C)(C)O)cc2)CC1 [Compound 598] |
| ≤ 2000 nM | CC(C)Oc1ccc(C(=O)N2CCC3(CC2)Oc2ccccc2-c2c3cnn2C)c(F)c1 [Compound 599] |
| ≤ 2000 nM | Cn1ncc2c1-c1ccccc1OC21CCN(C(=O)c2cn(C)c3cccnc23)CC1 [Compound 600] |
| ≤ 2000 nM | COc1ccc(-n2ncc(C(=O)N3CCC4(CC3)Oc3ccccc3-c3c4cnn3C)c2C)cc1 [Compound 601] |
| ≤ 2000 nM | COc1cc(C(=O)N2CCC3(CC2)Oc2ccccc2-n2cccc23)ccc1OCCC(C)C [Compound 602] |
| ≤ 2000 nM | COc1c(C)cccc1C(=O)N1CCC2(CC1)Oc1cc(Cl)ccc1-n1cccc12 [Compound 605] |
| 2000 to 5000 nM | CC(C)(O)c1ccc(C(=O)N2CCC3(CC2)Oc2ccccc2-n2c3ccc2S(C)(=O)=O)cc1 [Compound 607] |
| ≤ 2000 nM | Cc1cccc(C(=O)N2CCC3(CC2)Oc2ccccc2-c2c3cnn2C)c1OC(C)C [Compound 608] |
| ≤ 2000 nM | COc1cc(C(=O)N2CCC3(CC2)Oc2cc(Cl)ccc2-n2cccc23)ccc1C(C)CO (stereo not shown) [Compound 609] |
| ≤ 2000 nM | Cc1cc(C(=O)N2CCC3(CC2)Oc2ccccc2-c2c3cnn2C)ccc1OC(C)(C)C [Compound 610] |
| ≤ 2000 nM | Cc1nc2ccc(C(=O)N3CCC4(CC3)Oc3ccccc3-c3nn(C)cc34)cc2s1 [Compound 611] |
| ≤ 2000 nM | COc1cc(C(=O)N2CCC3(CC2)Oc2cc(F)ccc2-n2cccc23)ccc1C1(O)COC1 [Compound 612] |
| ≤ 2000 nM | CC(C)S(=O)(=O)c1ccc(C(=O)N2CCC3(CC2)Oc2ccccc2-c2c3cnn2C)cc1 [Compound 613] |
| 2000 to 5000 nM | COc1cccc(F)c1C(=O)N1CCC2(CC1)Oc1ccccc1-n1c2ccc1S(C)(=O)=O [Compound 614] |
| ≤ 2000 nM | COc1cc(C(=O)N2CCC3(CC2)Oc2cc(F)ccc2-c2c3cnn2C)ccc1OC(C)C [Compound 617] |
| ≤ 2000 nM | O=C(c1ccccc1OC(F)F)N1CCC2(CC1)Oc1ccccc1-n1c(C(F)(F)F)ccc12 [Compound 618] |
| > 5000 nM | Cn1ncc2c1-c1ccccc1OC21CCN(C(=O)c2cccc(OC(F)(F)F)c2)CC1 [Compound 619] |
| ≤ 2000 nM | COc1ccc(C(=O)N2CCC3(CC2)Oc2ccccc2-c2c3cnn2C)cc1OC [Compound 620] |
| ≤ 2000 nM | CC(C)S(=O)(=O)c1ccc(C(=O)N2CCC3(CC2)Oc2ccccc2-n2c(C(F)(F)F)ccc23)cc1 [Compound 621] |

| SMILES | IC50 |
| --- | --- |
| CCc1ccc(C(=O)N2C3CCC2CC2(C3)Oc3ccccc3-n3cccc32)cc1OC (stereo not shown) [Compound 555] | ≤ 2000 nM |
